{"source": "patent US8742129B2", "about": "“Crystalline forms of febuxostat” (Teva Pharmaceuticals Industries Ltd., priority 2009, dated 2014)", "assay": "Solubility in ethanol of crystalline forms", "assay_type": "physicochemical", "settings": "compared to other crystalline forms"}
{"compound": "Cc1nc(-c2ccc(OCC(C)C)c(C#N)c2)sc1C(=O)O", "note": "[Febuxostat form F10, 2-(3-cyano-4-isobutyloxyphenyl)-4-methylthiazole-5-carboxylic acid]", "values": [{"measurement": "solubility in ethanol", "result": "better solubility in ethanol compared to other crystalline forms"}]}
